ChEMBL document CHEMBL1201862, “PubChem BioAssay data set” (2004)
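Test compounds were applied to cells in 96-well plates for 48 hours at 5 doses. GI50 is the concentration that inhibits growth by half.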 Activity calls are given as the source filed them. Rule as the data show it: active = GI50 up to about 1.1 µM and inactive = higher.

Experiments:
Test in all cases: growth of human tumour cells (NCI), 48 h
HCT-116 = tested on: HCT-116
OVCAR-8 = tested on: OVCAR-8
SNB-78 = tested on: SNB-78
HOP-92 = tested on: HOP-92
786-0 = tested on: 786-0
COLO 205 = tested on: COLO 205
OVCAR-4 = tested on: OVCAR-4
SF-539 = tested on: SF-539
U-251 = tested on: U-251
KM12 = tested on: KM12
OVCAR-5 = tested on: OVCAR-5
CCRF-CEM = tested on: CCRF-CEM
RPMI-8226 = tested on: RPMI-8226
SR = tested on: SR
MDA-MB-231 = tested on: MDA-MB-231
PC-3 = tested on: PC-3
Hs-578T = tested on: Hs-578T
RXF 393 = tested on: RXF 393
MCF7 = tested on: MCF7
MDA-MB-435 = tested on: MDA-MB-435

Measured: GI50

Cc1ccc(S(=O)(=O)C(C#N)c2nc3ccccc3nc2-n2cccn2)cc1 (stereo unspecified)
inactive: HCT-116 > 100 µM | OVCAR-8 > 100 µM | SNB-78 > 100 µM | HOP-92 > 100 µM | 786-0 > 100 µM | COLO 205 > 100 µM | OVCAR-4 > 100 µM | SF-539 > 100 µM | U-251 > 100 µM | KM12 > 100 µM | OVCAR-5 > 100 µM | CCRF-CEM > 100 µM | RPMI-8226 > 100 µM

N=C(N)N/N=C/c1c(-c2ccc(Cl)c([N+](=O)[O-])c2)nc2sccn12
inactive: HCT-116 1.37 µM | OVCAR-8 2.11 µM | SR 2.05 µM | HOP-92 1.87 µM | 786-0 1.73 µM | MDA-MB-231 1.74 µM | PC-3 1.65 µM | COLO 205 1.31 µM | OVCAR-4 1.79 µM | Hs-578T 2.05 µM | SF-539 1.82 µM | U-251 1.67 µM | OVCAR-5 1.71 µM | RXF 393 1.22 µM | MCF7 1.37 µM | CCRF-CEM 1.41 µM | RPMI-8226 2.06 µM
active: KM12 0.861 µM | MDA-MB-435 0.6 µM

COc1ccccc1NC(=O)CC(=O)N1N=C(C)C(/N=N/c2ccc(C(=O)O)cc2)C1=O (stereo unspecified)
inactive: HCT-116 > 100 µM | OVCAR-8 > 100 µM | SR > 100 µM | HOP-92 28.2 µM | 786-0 > 100 µM | MDA-MB-231 > 100 µM | PC-3 > 100 µM | COLO 205 > 100 µM | OVCAR-4 > 100 µM | Hs-578T > 100 µM | SF-539 > 100 µM | U-251 > 100 µM | KM12 > 100 µM | OVCAR-5 > 100 µM | RXF 393 > 100 µM | MCF7 > 100 µM | CCRF-CEM > 100 µM | MDA-MB-435 > 100 µM | RPMI-8226 > 100 µM

O=C1C(=Cc2cccs2)C(=O)N(CCc2ccccc2)S(=O)(=O)N1CCc1ccccc1
inactive: HCT-116 11.7 µM | OVCAR-8 > 50 µM | SR > 50 µM | SNB-78 > 50 µM | HOP-92 > 50 µM | 786-0 > 50 µM | COLO 205 > 50 µM | OVCAR-4 > 50 µM | SF-539 > 50 µM | U-251 12.9 µM | KM12 > 50 µM | OVCAR-5 > 50 µM | RXF 393 20.7 µM | CCRF-CEM 36.9 µM | RPMI-8226 20.7 µM

C=CCC1(CN(C)C)CC/C(=C\c2ccc(Cl)cc2)C1=O (stereo unspecified)
active: SR 0.0973 µM
inactive: HCT-116 19.9 µM | OVCAR-8 42.3 µM | SNB-78 27.4 µM | HOP-92 66.8 µM | 786-0 38.1 µM | COLO 205 27.2 µM | OVCAR-4 31 µM | SF-539 > 54.1 µM | U-251 38.1 µM | KM12 29.5 µM | OVCAR-5 > 77.4 µM | RXF 393 31 µM | CCRF-CEM 15.9 µM | RPMI-8226 17 µM

Cc1cc(C)nc(NS(=O)(=O)c2ccc(NC(=O)c3cccc4cc5ccccc5nc34)cc2)n1
inactive: HCT-116 17.2 µM | OVCAR-8 33 µM | SNB-78 25.2 µM | 786-0 39.5 µM | COLO 205 39.4 µM | OVCAR-4 32.8 µM | SF-539 15.3 µM | U-251 30.6 µM | KM12 24.5 µM | OVCAR-5 62.2 µM | RXF 393 23.1 µM | CCRF-CEM 21.4 µM | RPMI-8226 21.4 µM

OC1CC2CCC(C1)N2CCCN1c2ccccc2Sc2ccc(Cl)cc21 (stereo unspecified)
inactive: HCT-116 1.83 µM | OVCAR-8 2.11 µM | SR 2.2 µM | HOP-92 2.5 µM | 786-0 1.83 µM | MDA-MB-231 1.84 µM | PC-3 2.12 µM | COLO 205 1.77 µM | OVCAR-4 3.69 µM | Hs-578T 2.22 µM | SF-539 1.84 µM | U-251 1.87 µM | KM12 1.95 µM | OVCAR-5 2.82 µM | RXF 393 1.74 µM | MCF7 1.59 µM | CCRF-CEM 1.94 µM | MDA-MB-435 1.73 µM | RPMI-8226 1.87 µM

CC1(C)C(O)OC(O)C1(C)C (stereo unspecified)
inactive: HCT-116 33.9 µM | OVCAR-8 41.8 µM | SNB-78 > 100 µM | HOP-92 > 100 µM | 786-0 93.1 µM | COLO 205 > 100 µM | OVCAR-4 > 100 µM | U-251 > 100 µM | KM12 > 100 µM | OVCAR-5 > 100 µM | RXF 393 32.6 µM | CCRF-CEM 46 µM | RPMI-8226 70 µM
